ChEMBL document CHEMBL1201862, “PubChem BioAssay data set” (2004)
Activity calls are given as the source filed them.

Columns and labels:
Beta-galactosidase = Beta-galactosidase (Escherichia coli, UniProt Q8VNN2); experiment: beta-galactosidase enzyme inhibitors and activators, dose response, artefact control for CCR6 antagonist project, biochemical, E. coli enzyme, set 3 (AID 504712); type: functional
[1] = target: T1, Replicative DNA helicase DnaB (Mycobacterium tuberculosis, UniProt P9WMR3); experiment: DnaB intein splicing inhibitors, dose response, biochemical, cell-free fluorescence (AID 449749); type: functional
T1 sequence (P9WMR3 whole entry): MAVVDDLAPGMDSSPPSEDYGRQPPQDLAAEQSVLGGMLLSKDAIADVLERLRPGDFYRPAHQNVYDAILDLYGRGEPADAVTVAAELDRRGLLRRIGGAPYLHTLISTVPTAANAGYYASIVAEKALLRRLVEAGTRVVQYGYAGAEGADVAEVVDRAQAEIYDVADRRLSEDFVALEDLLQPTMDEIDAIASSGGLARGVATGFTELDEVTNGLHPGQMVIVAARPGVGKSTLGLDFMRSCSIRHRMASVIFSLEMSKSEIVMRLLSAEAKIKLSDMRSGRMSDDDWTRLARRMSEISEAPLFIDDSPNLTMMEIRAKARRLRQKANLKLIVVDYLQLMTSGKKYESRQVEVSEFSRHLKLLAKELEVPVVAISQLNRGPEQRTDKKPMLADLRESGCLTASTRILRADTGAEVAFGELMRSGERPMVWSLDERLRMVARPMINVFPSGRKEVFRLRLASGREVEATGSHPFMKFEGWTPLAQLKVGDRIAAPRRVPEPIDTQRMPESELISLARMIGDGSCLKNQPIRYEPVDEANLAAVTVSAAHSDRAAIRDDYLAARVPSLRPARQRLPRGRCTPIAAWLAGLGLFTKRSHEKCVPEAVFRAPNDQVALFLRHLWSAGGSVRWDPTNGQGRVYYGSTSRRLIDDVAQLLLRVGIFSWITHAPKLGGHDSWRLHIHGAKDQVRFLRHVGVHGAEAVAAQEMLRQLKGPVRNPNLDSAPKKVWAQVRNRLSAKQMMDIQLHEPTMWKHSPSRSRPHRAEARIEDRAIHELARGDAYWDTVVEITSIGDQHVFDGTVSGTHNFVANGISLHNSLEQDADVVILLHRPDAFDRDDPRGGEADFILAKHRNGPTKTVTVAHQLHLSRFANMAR

Protein RecA = target: T2, Protein RecA (Mycobacterium tuberculosis, UniProt P9WHJ3); experiment: Fluorescence Cell-Free Homogeneous Dose Retest to Identify Inhibitors of RecA-Intein Splicing Activity. [Related pubchem assays (depositor defined):AID2097, AID2223, AID489010, AID492950]; type: functional
T2 sequence (P9WHJ3 whole entry): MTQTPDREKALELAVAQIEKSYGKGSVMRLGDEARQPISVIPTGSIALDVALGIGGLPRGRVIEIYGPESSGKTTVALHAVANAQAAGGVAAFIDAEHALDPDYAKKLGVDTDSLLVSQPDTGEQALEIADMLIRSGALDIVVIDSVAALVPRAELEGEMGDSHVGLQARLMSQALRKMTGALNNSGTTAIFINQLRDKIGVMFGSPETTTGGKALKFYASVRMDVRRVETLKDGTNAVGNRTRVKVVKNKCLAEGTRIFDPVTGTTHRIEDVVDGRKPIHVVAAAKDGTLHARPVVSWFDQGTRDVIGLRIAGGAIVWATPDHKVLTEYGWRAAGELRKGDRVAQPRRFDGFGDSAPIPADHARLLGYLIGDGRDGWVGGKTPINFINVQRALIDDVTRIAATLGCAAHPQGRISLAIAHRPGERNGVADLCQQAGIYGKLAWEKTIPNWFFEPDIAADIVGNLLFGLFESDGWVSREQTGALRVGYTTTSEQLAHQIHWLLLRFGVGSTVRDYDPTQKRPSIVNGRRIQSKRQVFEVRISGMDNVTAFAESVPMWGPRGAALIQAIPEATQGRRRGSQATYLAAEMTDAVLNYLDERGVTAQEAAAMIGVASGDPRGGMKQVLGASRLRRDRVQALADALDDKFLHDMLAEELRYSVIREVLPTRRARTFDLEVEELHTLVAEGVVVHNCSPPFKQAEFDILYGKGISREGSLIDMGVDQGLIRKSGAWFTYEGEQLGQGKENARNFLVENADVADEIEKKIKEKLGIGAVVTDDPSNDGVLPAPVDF

[2] = cytotoxicity in BJeHLT fibroblasts, dose response, counter-screen for Ras selective lethality project, BJeHLT cells, dry powder (AID 493052); type: functional, cell-based; conditions: Homo sapiens
[3] = viability loss in BJeLR (HRASV12) cells, primary screen, Ras selective lethality project, cell-based, Alamar Blue, dry powder (AID 493045); type: functional
[4] = viability loss in HRASV12 DRD fibroblasts, dose response, cell-based, DRD BJ fibroblasts, dry powder (AID 493049); type: functional
[5] = cytotoxicity in BJeH fibroblasts, dose response, counter-screen for Ras selective lethality project, BJeH cells, dry powder (AID 493054); type: functional, cell-based
[6] = target: Eukaryotic translation initiation factor 4H (Homo sapiens, UniProt Q15056); experiment: eIF4H inhibition in translation initiation, SAR follow-up (AID 435011); type: functional
[7] = target: Polyadenylate-binding protein 1 (Homo sapiens, UniProt P11940); experiment: PABP inhibition in translation initiation, SAR follow-up (AID 435018); type: functional
Sequence of Polyadenylate-binding protein 1 (P11940 whole entry): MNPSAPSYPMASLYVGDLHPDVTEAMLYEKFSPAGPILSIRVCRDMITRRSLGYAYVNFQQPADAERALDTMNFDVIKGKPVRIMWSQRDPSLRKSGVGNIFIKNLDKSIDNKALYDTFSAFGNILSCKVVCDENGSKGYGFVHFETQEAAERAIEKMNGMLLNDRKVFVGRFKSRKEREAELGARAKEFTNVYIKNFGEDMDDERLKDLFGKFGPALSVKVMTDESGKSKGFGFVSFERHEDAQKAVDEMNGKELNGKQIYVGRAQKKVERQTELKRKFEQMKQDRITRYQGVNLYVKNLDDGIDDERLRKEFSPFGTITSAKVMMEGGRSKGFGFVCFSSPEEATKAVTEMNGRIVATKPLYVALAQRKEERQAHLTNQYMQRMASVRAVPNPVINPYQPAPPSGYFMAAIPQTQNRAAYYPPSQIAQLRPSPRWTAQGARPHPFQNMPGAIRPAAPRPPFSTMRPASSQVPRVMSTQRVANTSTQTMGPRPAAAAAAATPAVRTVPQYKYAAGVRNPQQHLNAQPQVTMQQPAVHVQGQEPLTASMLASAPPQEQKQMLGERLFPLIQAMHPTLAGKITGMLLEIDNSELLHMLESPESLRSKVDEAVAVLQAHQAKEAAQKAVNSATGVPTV

[8] = growth suppression of PTEN-null colon cells, dose response, cell-based, HCT116 PTEN knockout (AID 1047); type: functional;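 also: HCT116 colon tumor cells with PTEN knocked out; cells exposed to compound for 60 hours before readout; potency for loss of cell viability measured by luminescence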
Caspase-3 = target: T3, Caspase-3 (Homo sapiens, UniProt P42574); experiment: procaspase-3 activators, dose response, biochemical, absorbance (AID 489014)
T3 sequence (P42574 whole entry): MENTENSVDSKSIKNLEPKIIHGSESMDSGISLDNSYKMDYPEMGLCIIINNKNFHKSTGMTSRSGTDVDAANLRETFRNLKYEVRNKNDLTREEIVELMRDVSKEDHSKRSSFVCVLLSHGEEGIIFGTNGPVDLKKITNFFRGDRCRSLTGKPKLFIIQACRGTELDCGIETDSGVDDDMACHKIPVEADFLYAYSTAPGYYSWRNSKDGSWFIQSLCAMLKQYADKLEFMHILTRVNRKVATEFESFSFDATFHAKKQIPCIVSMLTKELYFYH

[9] = HEp-2 cell cytotoxicity, dose response, cytotoxicity control for RSV inhibitor project, HTS (AID 2410); type: functional; conditions: human respiratory syncytial virus
INS1 = experiment: beta cell apoptosis inhibitors, cytokine rescue, dose response, luminescence, retest (AID 449756); type: functional, cell-based; conditions: Rattus norvegicus;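 also: cell death triggered by IL-1 beta plus TNF-alpha plus IFN-gamma mixture; protective hits raise ATP signal compared with cytokine alone wells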
Caspase-7 = Caspase-7 (Homo sapiens, UniProt P55210); experiment: procaspase-7 activators, dose response, counter-screen for procaspase-3 activator project, biochemical, absorbance (AID 489013)
Sequence of Caspase-7 (P55210 24-198 limits assumed): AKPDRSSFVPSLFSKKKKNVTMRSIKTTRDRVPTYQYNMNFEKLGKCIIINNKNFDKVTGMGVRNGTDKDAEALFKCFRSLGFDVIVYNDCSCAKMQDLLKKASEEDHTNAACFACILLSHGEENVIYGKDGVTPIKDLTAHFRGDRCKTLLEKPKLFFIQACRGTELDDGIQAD
Sequence of Caspase-7 (P55210 207-303 limits assumed): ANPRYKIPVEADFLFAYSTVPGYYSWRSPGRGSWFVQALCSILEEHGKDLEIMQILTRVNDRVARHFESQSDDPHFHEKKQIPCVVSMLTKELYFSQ

[10] = target: T4, Probable nicotinate-nucleotide adenylyltransferase (Staphylococcus aureus (strain N315), UniProt P65502); type: functional, Staphylococcus aureus subsp. aureus N315; conditions: read-out: IC50_Mean;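 as to IC50 Mean: confirmatory dose-response retesting of NadD inhibitor hits first found in an ultra-high-throughput screen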
T4 sequence (P65502 whole entry): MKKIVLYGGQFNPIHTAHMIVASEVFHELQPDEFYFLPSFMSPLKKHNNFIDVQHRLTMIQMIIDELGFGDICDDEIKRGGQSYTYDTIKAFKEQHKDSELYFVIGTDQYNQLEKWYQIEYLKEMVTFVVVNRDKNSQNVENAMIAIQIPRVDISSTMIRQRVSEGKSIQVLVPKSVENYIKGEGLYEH

[11] = growth suppression of beta-catenin-knockout colon cells, dose response, cell-based, HCT116, human colon tumor (AID 1045); type: functional;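 also: HCT116 colon tumor cells with beta catenin knocked out; cells exposed to compound for 60 hours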
[12] = target: T4, Probable nicotinate-nucleotide adenylyltransferase; type: functional, Staphylococcus aureus subsp. aureus N315

Sequence of Beta-galactosidase (Q8VNN2 whole entry): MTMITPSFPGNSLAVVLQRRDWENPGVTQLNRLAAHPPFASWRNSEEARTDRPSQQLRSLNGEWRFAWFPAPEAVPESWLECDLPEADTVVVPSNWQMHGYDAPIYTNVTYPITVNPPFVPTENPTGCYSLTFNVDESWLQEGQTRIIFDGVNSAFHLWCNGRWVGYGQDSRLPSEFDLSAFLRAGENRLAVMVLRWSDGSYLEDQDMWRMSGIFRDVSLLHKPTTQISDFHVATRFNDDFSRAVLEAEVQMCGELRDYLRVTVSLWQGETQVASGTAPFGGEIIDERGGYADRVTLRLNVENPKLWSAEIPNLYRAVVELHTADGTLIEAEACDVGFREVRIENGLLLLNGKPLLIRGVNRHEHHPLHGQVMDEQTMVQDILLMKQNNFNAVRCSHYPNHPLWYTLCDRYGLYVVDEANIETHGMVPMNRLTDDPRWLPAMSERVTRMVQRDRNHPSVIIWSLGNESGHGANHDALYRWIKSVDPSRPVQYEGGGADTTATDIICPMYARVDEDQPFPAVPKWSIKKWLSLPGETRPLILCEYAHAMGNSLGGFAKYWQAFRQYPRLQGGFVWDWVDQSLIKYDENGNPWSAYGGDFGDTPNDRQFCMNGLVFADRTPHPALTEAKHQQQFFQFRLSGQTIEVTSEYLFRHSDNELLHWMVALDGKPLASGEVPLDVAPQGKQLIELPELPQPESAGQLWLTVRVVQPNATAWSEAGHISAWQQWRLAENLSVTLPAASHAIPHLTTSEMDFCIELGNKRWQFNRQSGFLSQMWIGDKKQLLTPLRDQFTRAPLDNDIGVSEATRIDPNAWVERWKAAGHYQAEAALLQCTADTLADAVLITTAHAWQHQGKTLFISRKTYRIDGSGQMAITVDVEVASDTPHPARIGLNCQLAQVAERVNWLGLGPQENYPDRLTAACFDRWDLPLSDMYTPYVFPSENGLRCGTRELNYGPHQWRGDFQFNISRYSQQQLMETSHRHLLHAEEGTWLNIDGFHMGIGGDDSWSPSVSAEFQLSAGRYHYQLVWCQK

N#Cc1cc([N+](=O)[O-])c(-n2nnc3ccccc32)c([N+](=O)[O-])c1
IC50 (Beta-galactosidase): > 66.6 µM (inactive) | AC50 [1]: 7.31 µM (active) | EC50 (Protein RecA): 25.9 µM (active)

COc1ccc(N(C(=O)CCl)C(C(=O)NCCc2ccccc2)C2CCCCC2)cc1Cl (configuration not stated)
AC50 [2]: 1.18 µM (active) | AC50 [3]: 0.505 µM (active) | AC50 [4]: 0.496 µM (active) | AC50 [5]: 1.48 µM (active)

Cc1ccc(NC(=O)C2CCN(C(=O)c3cccs3)CC2)cc1
IC50 [6]: > 100 µM (inactive) | IC50 [7]: > 100 µM (inactive)

C=CCn1/c(=N/C(=O)c2cc(-c3cccs3)nc3ccccc23)sc2cc(S(N)(=O)=O)ccc21
EC50 [8]: 25.3 µM (active) | EC50 (Caspase-3): 3.26 µM (active) | CC50 [9]: 17.2 µM (active) | AC50 (INS1): 19.3 µM (active) | EC50 (Caspase-7): > 3.16 µM (active) | IC50 [10]: 21.6 µM (active) | EC50 [11]: 30.1 µM (active) | IC50 [12]: 11.5 µM (active)
